# Assay results taken from patent US20210261621A1, “Preparation of Dilipid Polymixins and Use Thereof as Antimicrobial Adjuvants” (priority 2018, published 2021).
# “And” between values parts separate entries of the source, which are not always exact repeats. Identical values can stand only once. Like-named read-outs stand apart in the source and are kept apart here. Positions of bridges follow the written chain, without caps; N, C: chain ends. Non-standard residues stand in square brackets, D forms with d. Residues, ends and D or L forms follow the SMILES beside them. *: point of attachment. Acetyl(1-adamantyl) = O=C(CC12CC3CC(CC(C3)C1)C2)*; Dab = NCC[C@H](N)C(=O)O
# Tested on: P. aeruginosa PAO1
# Parameters: MICDrug / MICDrug in combo / MIC of adjuvant in combo: unit not given beside the values
# Protocol: The potential of the dilipid polymyxins to serve as an adjuvant in combination with other antibiotics was evaluated against P. aeruginosa PAO1 strain (Tables 4 and 7-12). […] Checkerboard assays were performed with the dilipid polymyxins in combination with twenty-one clinically-used antibiotics. The panel included representatives from the β-lactam, carbapenem, tetracycline, aminoglycoside and fluoroquinolone antibiotic families. Other agents that are used to treat Gram-negative bacterial infection such as fosfomycin, trimethoprim and chloramphenicol were also included. […] Fractional inhibitory concentration (FIC) index was calculated for each combination to measure potential synergism between the two agents. FIC was obtained by dividing the MIC of antibiotic/adjuvant in combination by the MIC of antibiotic/adjuvant alone, while FIC index was calculated by the summation of FIC indices for the antibiotic and adjuvant. An FIC index of ≤0.5, 0.5<x≤4, or >4 denotes for synergistic, additive or antagonistic interaction, respectively. Initially, we assessed the adjuvant properties of PMBN against the panel of 21 antibiotics.
# The assay was performed on 96-well plates as previously described. Briefly, the antibiotic at study was 2-fold serially diluted along the x-axis, while the adjuvant was 2-fold serially diluted along the y-axis to create a matrix in which each well consists of a combination of both at different concentrations. Overnight grown bacterial cultures were diluted in saline to 0.5 McFarland turbidity, followed by 1:50 dilution in MHB and inoculation on each well to a final concentration of approximately 5×10^5 colony forming units/mL. Wells containing only MHB with or without bacterial cells were used as positive or negative control, respectively. […] The fractional inhibitory concentration (FIC) of the antibiotic was calculated via dividing the MIC of antibiotic in the presence of adjuvant by the MIC of antibiotic alone. Similarly, the FIC of adjuvant was calculated via dividing the MIC of adjuvant in the presence of antibiotic by the MIC of adjuvant alone. The FIC index was obtained by the summation of both FIC values. The FIC index was then interpreted as synergistic, additive, or antagonistic for values of ≤0.5, 0.5<x<4, or ≥4, respectively.
structure (smiles),measurement,setting,value
"CC(C)C[C@@H]1NC(=O)[C@@H](Cc2ccccc2)NC(=O)[C@H](CCN)NC(=O)[C@@H](NC(=O)[C@H](CCN)NC(=O)[C@@H](NC(=O)[C@H](CCNC(=O)CC23CC4CC(CC(C4)C2)C3)NC(=O)CC23CC4CC(CC(C4)C2)C3)[C@@H](C)O)CCNC(=O)[C@H]([C@@H](C)O)NC(=O)[C@H](CCN)NC(=O)[C@H](CCN)NC1=O [Compound 4, Diadamantane Acetic Acid (Di-Adamantyl) Polymyxin] ({Acetyl(1-adamantyl)}-[Dab](Acetyl(1-adamantyl))T[Dab][Dab][Dab][dF]L[Dab][Dab]T; lactam 4-C)","MIC of adjuvant alone (MIC1, MIC2, MIC3, MIC4, MIC5, MICPMBN)","adjuvant alone, one value per checkerboard, in µg/mL",16 and 8
same,Interpretation,combination with Aztreonam,"Additive (An FIC index of ≤0.5, 0.5<x≤4, or >4 denotes for synergistic, additive or antagonistic interaction, respectively)"
same,Interpretation,combination with Ceftazidime,"Additive (An FIC index of ≤0.5, 0.5<x≤4, or >4 denotes for synergistic, additive or antagonistic interaction, respectively)"
same,Interpretation,combination with Chloramphenicol,"Additive (An FIC index of ≤0.5, 0.5<x≤4, or >4 denotes for synergistic, additive or antagonistic interaction, respectively)"
same,Interpretation,combination with Ciprofloxacin,"Additive (An FIC index of ≤0.5, 0.5<x≤4, or >4 denotes for synergistic, additive or antagonistic interaction, respectively)"
same,Interpretation,combination with Clindamycin,"Additive (An FIC index of ≤0.5, 0.5<x≤4, or >4 denotes for synergistic, additive or antagonistic interaction, respectively)"
same,Interpretation,combination with Doripenem,"Additive (An FIC index of ≤0.5, 0.5<x≤4, or >4 denotes for synergistic, additive or antagonistic interaction, respectively)"
same,Interpretation,combination with Doxycycline,"Additive (An FIC index of ≤0.5, 0.5<x≤4, or >4 denotes for synergistic, additive or antagonistic interaction, respectively)"
same,Interpretation,combination with Fosfomycin,"Additive (An FIC index of ≤0.5, 0.5<x≤4, or >4 denotes for synergistic, additive or antagonistic interaction, respectively)"
same,Interpretation,combination with Gentamicin,"Additive (An FIC index of ≤0.5, 0.5<x≤4, or >4 denotes for synergistic, additive or antagonistic interaction, respectively)"
same,Interpretation,combination with Linezolid,"Additive (An FIC index of ≤0.5, 0.5<x≤4, or >4 denotes for synergistic, additive or antagonistic interaction, respectively)"
same,Interpretation,combination with Meropenem,"Additive (An FIC index of ≤0.5, 0.5<x≤4, or >4 denotes for synergistic, additive or antagonistic interaction, respectively)"
same,Interpretation,combination with Minocycline,"Additive (An FIC index of ≤0.5, 0.5<x≤4, or >4 denotes for synergistic, additive or antagonistic interaction, respectively)"
same,Interpretation,combination with Moxifloxacin,"Additive (An FIC index of ≤0.5, 0.5<x≤4, or >4 denotes for synergistic, additive or antagonistic interaction, respectively)"
same,Interpretation,combination with Novobiocin,"Additive (An FIC index of ≤0.5, 0.5<x≤4, or >4 denotes for synergistic, additive or antagonistic interaction, respectively)"
same,Interpretation,combination with Piperacillin,"Additive (An FIC index of ≤0.5, 0.5<x≤4, or >4 denotes for synergistic, additive or antagonistic interaction, respectively)"
same,Interpretation,combination with Pleuromutilin,"Additive (An FIC index of ≤0.5, 0.5<x≤4, or >4 denotes for synergistic, additive or antagonistic interaction, respectively)"
same,Interpretation,combination with Rifampicin,"Additive (An FIC index of ≤0.5, 0.5<x≤4, or >4 denotes for synergistic, additive or antagonistic interaction, respectively)"
same,Interpretation,combination with Streptomycin,"Additive (An FIC index of ≤0.5, 0.5<x≤4, or >4 denotes for synergistic, additive or antagonistic interaction, respectively)"
same,Interpretation,combination with Tobramycin,"Additive (An FIC index of ≤0.5, 0.5<x≤4, or >4 denotes for synergistic, additive or antagonistic interaction, respectively)"
same,Interpretation,combination with Trimethoprim,"Additive (An FIC index of ≤0.5, 0.5<x≤4, or >4 denotes for synergistic, additive or antagonistic interaction, respectively)"
same,Interpretation,combination with Vancomycin,"Additive (An FIC index of ≤0.5, 0.5<x≤4, or >4 denotes for synergistic, additive or antagonistic interaction, respectively)"
same,MIC of adjuvant in combo,in combination with Aztreonam,(8)
same,MIC of adjuvant in combo,in combination with Ceftazidime,(8)
same,MIC of adjuvant in combo,in combination with Chloramphenicol,(4)
same,MIC of adjuvant in combo,in combination with Ciprofloxacin,(0.25)
same,MIC of adjuvant in combo,in combination with Clindamycin,(4)
same,MIC of adjuvant in combo,in combination with Doripenem,(8)
same,MIC of adjuvant in combo,in combination with Doxycycline,(4)
same,MIC of adjuvant in combo,in combination with Fosfomycin,(4)
same,MIC of adjuvant in combo,in combination with Gentamicin,(0.25)
same,MIC of adjuvant in combo,in combination with Linezolid,(8)
same,MIC of adjuvant in combo,in combination with Meropenem,(4)
same,MIC of adjuvant in combo,in combination with Minocycline,(4)
same,MIC of adjuvant in combo,in combination with Moxifloxacin,(4)
same,MIC of adjuvant in combo,in combination with Novobiocin,(4)
same,MIC of adjuvant in combo,in combination with Piperacillin,(0.25)
same,MIC of adjuvant in combo,in combination with Pleuromutilin,(4)
same,MIC of adjuvant in combo,in combination with Rifampicin,(4)
same,MIC of adjuvant in combo,in combination with Streptomycin,(0.25)
same,MIC of adjuvant in combo,in combination with Tobramycin,(0.25)
same,MIC of adjuvant in combo,in combination with Trimethoprim,(8)
same,MIC of adjuvant in combo,in combination with Vancomycin,(4)
same,adjuvant activity (potentiation of the panel of 21 antibiotics),result in words,did not enhance the activity of any antibiotics
